The values below come from US5580860A, “Pharmaceutical composition containing 2-amino-6-chloropurine-9-β-D-2',3'-dideoxyribofuranoxside” (priority 1989, dated 1996).

Series [1] concerns HIV. As to conditions: J. Biol. Chem., 263, 5870 (1988); cited from earlier work.
The subject of series [2] is production of reverse transcriptase (HIV). The conditions noted are these: J. Med. Chem., 32, 1135 (1989), cited from earlier work.
The test system of series [3] is cells. The conditions noted are these: J. Med. Chem., 32, 1135 (1989), cited from earlier work.
The subject of series [4] is cells. As to conditions: read-out: concentration range from which cytotoxicity appears; J. Biol. Chem., 263, 5870 (1988); cited from earlier work.
For series [5], the system named is HIV. As to conditions: compared with AZT; cited from earlier work.
The nature of series [6]: Lipophilicity test, partition coefficient by shake-flask method. The class given is physicochemical. The conditions noted are these: n-octanol / phosphate buffer pH 7.4, shake-flask, HPLC.
Description: As a method for determining the extent of lipophilicity, it is a general rule to measure the partition coefficient (P) in water-n-octanol. Thus, the lipophilicity test of 2-amino-6-chloropurine-9-β-2',3'-dideoxyribofuranoside concerned with the invention was performed by the method of using partition coefficient P by shake-flask method (J. Pharm. Pharmacol., 39, 253 (1987)).
Namely, n-octanol and phosphate buffer (pH 7.4) were transferred into a separatory funnel and shaken for 3 hours with a shaker, which was then allowed to stand for 12 hours to separate respectively. Into 50 ml of n-octanol-saturated buffer thus obtained was dissolved 1 mg of sample (dried for 12 hours at 50° C. in a vacuum dryer) and 0.5 ml of this solution were taken as a sample for quantitative determination. Remaining 49.5 ml of n-octanol-saturated buffer and 49.5 ml of buffer-saturated n-octanol were transferred into a separatory funnel.
After shaking for 3 hours with a shaker, this was allowed to stand for 2 hours and then centrifuged (1500 rpm, 15 minutes). After gently removing the n-octanol layer, the sample for quantitative determination was taken.
The partition coefficient P is defined as follows:
Co: Concentration of sample in buffer before shaking
Cw: Concentration of sample in buffer after shaking
Series [7] concerns AIDS virus (HIV) in ATH8 cells. The series can be described thus: Antivirus test (1), anti-HIV effect in ATH8 cells. The class given is cell-based. As to conditions: for IC100: read-out: complete inhibition concentration for HIV. As for the experimental part:
(§1) Namely, after pretreatment beforehand with polybrene (made by Sigma Co.), 2×10^5 ATH 8 cells were exposed to AIDS virus (HIV) for 45 minutes to infect (the number of HIV was made so as to be 2000 per ATH8 cell). Successively, the infected cells were suspended into every 1 ml of respective media containing interleukin 2 (IL-2) and being added with anti-HIV agent in various concentrations and into 1 ml of medium containing IL-2 alone and not containing anti-HIV agent at any rate.
(§2) These were cultured at 37° C. in a mixed gas comprising 5% carbon dioxide and 95% air.
(§3) The cells for reference were similarly prepared except allowing to infect with AIDS virus (HIV).
(§4) After 5 days, whole number of cells was counted by hemocytometer method based on the dyeing with trypan blue.

Another series deals with ATH8 cells. The series can be described thus: Cytotoxicity in the anti-HIV test (ATH8 cells). The format is cell-based. As to conditions: in words. The protocol:
as §1, §2, §3, §4

Series [8] can be described thus: Cytotoxicity in the anti-HIV test (ATH8 cells). The format is cell-based. The conditions noted are these: human, ath8 cells; DMSO present (1% at 200 μM); attributed to influence of DMSO; read-out: concentration at which cytotoxicity appears. The protocol:
as §1, §2, §3, §4

Series [9] relates to p24 gag protein of HIV (H9 cells). The series can be described thus: Antivirus test (2), expression of p24 gag protein in HIV-infected H9 cells. The class given is cell-based. The protocol: Namely, HIV-infected H9 cells added with anti-HIV agent in various concentrations were cultured for 8 days and 9 days, respectively, to assay the rate (%) of the target H9 cells expressing p24 gag protein of HIV. Measurement was made by a murine monoclonal antibody (M26) method.

Setting [10] is: Human immunodeficiency virus 1, ATH-8, 120 h, ATH8 cells, 5 days.

For the molecule `Nc1nc(Cl)nc2c1ncn2[C@H]1CC[C@@H](CO)O1` [2-chloro-2',3'-dideoxyadenosine], the “concentration exhibiting HIV inhibition effect” value with HIV [1] is 1 to 10 µM. The “anti-HIV effect at 2 μM” value in series [2] (2 μM) was “no effect at all”. Also, in series [2] (100 μM), the “inhibition of the production of reverse transcriptase at 100 μM” value is 97%. Moreover, in the series with cells [3] (100 μM), the “cytotoxicity at 100 μM” value is given as 23%. The MCC with cells [4] was 1 to 10 µM.
As for `Nc1ccn([C@H]2CC[C@@H](CO)O2)c(=O)n1` [DDC, 2',3'-dideoxycytidine], the “anti-HIV effect in vitro” value in the series on HIV [5] is “higher anti-HIV effect in vitro than that of AZT”.
With `Nc1nc(Cl)nc2c1ncn2[C@H]1C=C[C@@H](CO)O1` [2-chloro-2',3'-didehydro-2',3'-dideoxyadenosine], the “inhibition of the production of reverse transcriptase at 20 μM” value in series [2] (20 μM) is listed as 75%. Further, the “toxicity at a concentration over 20 μM” value in the series with cells [3] (over 20 μM) was “the toxicity is so strong that the test cannot be performed”.
Take `Nc1ncnc2c1ncn2[C@H]1CC[C@@H](CO)O1` [DDA, 2',3'-dideoxyadenosine]: the “anti-HIV effect in vitro” value in the series on HIV [5] was “higher anti-HIV effect in vitro than that of AZT”.
As usually defined, the logD is lipophilicity at a set pH, counting ionised and neutral species. Take `OC[C@@H]1CC[C@H](n2cnc3c(O)ncnc32)O1` [DDI, 2',3'-dideoxyinosine]: in series [6], the logD is -1.22. Moreover, the “anti-HIV effect in vitro” value in the series on HIV [5] is “higher anti-HIV effect in vitro than that of AZT”.
`Nc1nc(F)nc2c1ncn2[C@H]1CC[C@@H](CO)O1` [2-fluoro-2',3'-dideoxyadenosine]: the “concentration exhibiting HIV inhibition effect” value in the series with HIV [1] is 1 to 10 µM. The MCC in the series with cells [4] is 1 to 10 µM.
`Nc1nc2c(ncn2[C@H]2CC[C@@H](CO)O2)c(=O)[nH]1` [DDG, 2'3'-dideoxyguanosine]: in series [6], the logD was -1.06. In addition, the IC100 in series [7] (setting [10]) is 10 µM.
In the case of `Nc1nc(Cl)c2ncn([C@H]3CC[C@@H](CO)O3)c2n1` [6-Cl-DDG, 2-amino-6-chloropurine-9-β-D-2',3'-dideoxyribofuranoside], the cytotoxicity entry with ATH8 cells is reported as “low cytotoxicity”. Also, in [8], the MCC at 120 h was greater than 200 µM. Also, the IC100 in series [9] (Human immunodeficiency virus 1, 8th and 9th day, read-out: concentration almost completely inhibiting the expressing of p24) was 10 µM; in [7] (setting [10]) it was 5 µM. The minimal effective concentration in series [9] (Human immunodeficiency virus 1, 8th and 9th day, read-out: concentration exhibiting inhibition effect on the expressing of p24 antigen) was determined as 3 µM; in series [7] (Human immunodeficiency virus 1, ATH-8, 120 h, ATH8 cells, 5 days, read-out: concentration exhibiting HIV inhibition effect), 2 µM. Moreover, the “anti-HIV effect compared with DDG” value in series [9] (vs DDG) is reported as “equal or higher anti-HIV effect compared with DDG”; in series [7] (ATH8 cells, vs DDG), “equal or higher anti-HIV effect compared with DDG”. In addition, the “anti-AIDS virus effect (anti-HIV effect)” value in [7] (in words) is reported as “high anti-AIDS virus effect (anti-HIV effect)”.
With `Nc1nc(Br)nc2c1ncn2[C@H]1CC[C@@H](CO)O1` [2-bromo-2',3'-dideoxyadenosine], the “concentration exhibiting HIV inhibition effect” value with HIV [1] was 1 to 10 µM. For the same molecule, in the series on cells [4], the MCC is 1 to 10 µM.
